For data set [1], the system named is Caco-2 cells. As to the method:
(§1) HCT 116, HeLa, A549, Hep G2, and Caco-2 cell lines were obtained from the China Center for Type Culture Collection, CCTCC (Wuhan, China). They were cultured in DMEM, including 10% FBS, 1% penicillin (l00 μg/mL), and 1% streptomycin (l00 μg/mL), in a constant temperature incubator at 37 °C with 5% CO2.
The cytotoxicity of FL118, FL77-28, and FL77-29 against HCT116, HeLa, A549 HepG2, and Caco-2 cell lines were measured using MTT assays. The cells were plated into 96-well plates at a density of 2 × 10^4 cells/mL and cultured for 24 h. […] After incubation with 20 µL of 5 mg/mL MTT solution for 4 h, the supernatant was gently discarded and 150 µL of DMSO was added to dissolve the formazan crystals. Finally, the absorbance was measured at 570 nm and the background was subtracted at 630 nm using an ELISA Plate Reader.

Data set [2] has as its target T1, BCRP (Homo sapiens, UniProt Q9UNQ0).
T1 construct: endogenous in cells; host or cells: Caco-2
T1 sequence (Q9UNQ0 1-655): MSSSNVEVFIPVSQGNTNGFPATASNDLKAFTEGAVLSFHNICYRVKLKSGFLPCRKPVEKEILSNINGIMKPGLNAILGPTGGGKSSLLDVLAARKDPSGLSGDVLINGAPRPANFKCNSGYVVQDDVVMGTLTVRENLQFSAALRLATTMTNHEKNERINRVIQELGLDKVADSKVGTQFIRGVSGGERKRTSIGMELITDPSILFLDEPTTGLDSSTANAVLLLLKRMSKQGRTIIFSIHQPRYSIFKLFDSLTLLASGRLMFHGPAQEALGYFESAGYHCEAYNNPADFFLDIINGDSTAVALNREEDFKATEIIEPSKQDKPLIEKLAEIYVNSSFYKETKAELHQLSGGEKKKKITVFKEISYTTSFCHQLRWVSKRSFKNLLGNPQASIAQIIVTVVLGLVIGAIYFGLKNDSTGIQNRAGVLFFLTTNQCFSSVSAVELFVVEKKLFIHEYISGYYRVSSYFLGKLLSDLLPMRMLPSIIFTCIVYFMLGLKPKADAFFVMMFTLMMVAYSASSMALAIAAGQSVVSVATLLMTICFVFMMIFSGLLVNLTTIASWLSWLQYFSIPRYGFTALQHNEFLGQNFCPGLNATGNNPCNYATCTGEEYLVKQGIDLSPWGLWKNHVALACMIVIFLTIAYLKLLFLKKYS
Briefly: Cellular uptake in Caco-2 cells with BCRP inhibitor Gefitinib. In kind it is in vitro ADME. To be noted: 1 µM Gefitinib pre-incubation 30 min, 0.2-1.0 μM, 37 °C, 4 h. As to the method: (§2) Caco-2 cells were plated in a 6-well plate at a density of 2 × 10^5 cells/well and cultured at 37 °C. After reaching 80% confluence, Caco-2 cells could be used in the uptake experiments. Next, the cells were washed twice with HBSS and pre-incubated with HBSS or 1 µM Verapamil or Gefitinib for 30 min. After pre-incubation, the drug-free HBSS was replaced by FaSSIF containing FL118, FL77-28, or FL77-29 (0.2, 0.4, 0.6, 0.8, and 1.0 μM), and then incubated for 4 h at 37 °C or 4 °C, respectively. Next, the cells were collected and lysed by freezing and thawing three times. Then, the cells were sonicated and centrifuged at 10,000 rpm for 10 min. Finally, the supernatants were used to measure concentrations of compounds and proteins by HPLC and Bradford methods.
(§3) Using the Shimadzu HPLC system (Shimadzu, Kyoto, Japan), the samples taken from the uptake experiment and the transport studies were eluted on a C18 reverse-phase column (250 mm × 4.6 mm, 5 μm, Elite, Dalian). The column was maintained at 40 °C and the absorbance detector wavelength was 365 nm. The mobile phase used for FL118, FL77-28, and FL77-29 consisted of acetonitrile: 0.1% formic acid (40:60, v/v), (60:40, v/v), and (65:35, v/v). The flow rate was 1.0 mL/min, and the injection volume was 20 μL. The retention times of FL118, FL77-28, and FL77-29 were 6.109 min (Figure 1A), 8.456 min (Figure 1B), and 6.351 min (Figure 1C), respectively. Calibration curves were constructed over a concentration range of 0.03–1.00 μM. […] The concentration of FL118, FL77-28, and FL77-29 was determined according to the typical equations.

The target of data set [3] is T2, P-gp (Homo sapiens, UniProt P08183). Briefly: Cellular uptake in Caco-2 cells with P-gp inhibitor Verapamil. It is filed as in vitro ADME. More on the design: endogenous in cells; host or cells: Caco-2. The following applies: 1 µM Verapamil pre-incubation 30 min, 0.2-1.0 μM, 37 °C, 4 h. As to the method: as §2, §3
T2 sequence (P08183 whole entry): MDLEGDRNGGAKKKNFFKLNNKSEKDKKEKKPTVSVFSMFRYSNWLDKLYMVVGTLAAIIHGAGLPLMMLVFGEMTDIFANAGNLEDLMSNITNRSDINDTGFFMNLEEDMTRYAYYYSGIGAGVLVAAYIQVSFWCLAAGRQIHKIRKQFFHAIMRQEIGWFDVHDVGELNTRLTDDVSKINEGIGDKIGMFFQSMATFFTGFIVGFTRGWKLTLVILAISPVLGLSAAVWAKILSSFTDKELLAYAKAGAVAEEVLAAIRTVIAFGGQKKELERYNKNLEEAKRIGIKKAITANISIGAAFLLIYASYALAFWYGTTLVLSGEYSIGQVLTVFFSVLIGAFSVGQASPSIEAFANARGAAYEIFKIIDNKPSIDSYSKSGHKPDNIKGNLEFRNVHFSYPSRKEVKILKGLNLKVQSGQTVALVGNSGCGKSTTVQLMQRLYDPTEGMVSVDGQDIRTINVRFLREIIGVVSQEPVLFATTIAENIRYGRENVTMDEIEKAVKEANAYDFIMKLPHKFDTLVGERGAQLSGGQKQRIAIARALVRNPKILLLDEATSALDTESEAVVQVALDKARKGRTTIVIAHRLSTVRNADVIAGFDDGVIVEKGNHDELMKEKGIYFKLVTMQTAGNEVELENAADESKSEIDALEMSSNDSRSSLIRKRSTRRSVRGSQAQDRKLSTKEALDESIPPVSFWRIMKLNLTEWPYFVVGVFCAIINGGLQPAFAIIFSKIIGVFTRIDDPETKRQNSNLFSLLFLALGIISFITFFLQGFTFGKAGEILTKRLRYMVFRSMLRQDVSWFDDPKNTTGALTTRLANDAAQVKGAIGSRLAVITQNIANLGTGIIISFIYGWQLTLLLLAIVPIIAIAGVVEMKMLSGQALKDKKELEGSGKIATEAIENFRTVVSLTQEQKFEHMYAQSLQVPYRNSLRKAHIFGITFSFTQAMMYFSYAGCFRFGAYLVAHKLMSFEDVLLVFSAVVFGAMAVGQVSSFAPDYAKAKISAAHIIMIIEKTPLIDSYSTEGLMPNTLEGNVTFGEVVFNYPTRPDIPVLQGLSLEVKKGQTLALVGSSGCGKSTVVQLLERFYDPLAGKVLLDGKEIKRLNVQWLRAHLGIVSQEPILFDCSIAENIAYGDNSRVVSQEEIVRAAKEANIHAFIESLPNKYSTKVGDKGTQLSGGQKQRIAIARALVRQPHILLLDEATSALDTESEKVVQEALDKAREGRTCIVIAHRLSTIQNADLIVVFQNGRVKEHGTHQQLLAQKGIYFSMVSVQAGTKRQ
The next data set concerns Caco-2 cell monolayers. Briefly: Transport across Caco-2 cell monolayers. To be noted: for Papp AP-BL / efflux ratio (ER) = Papp BL-AP/Papp AP-BL: 1.0 μM; for Papp AP-BL: AP FaSSIF pH 6.5, BL HBSS pH 7.4; for efflux ratio (ER) = Papp BL-AP/Papp AP-BL: Caco-2 monolayer. In kind it is in vitro ADME. The procedure: When Caco-2 cells reached 80–90% confluence in T-25 flasks, the cells were digested, centrifuged, and resuspended. After seeding at a density of 2 × 10^5 cells/well onto the apical of the Transwell® plate, 0.5 mL of 10% DMEM was added into the apical (AP) chamber and 1.5 mL of 10% DMEM was added into the basolateral (BL) chamber. The buffer was refreshed every two days, and after one week it was refreshed daily and incubated until 21 days.
The integrity of the Caco-2 cell monolayer was evaluated by measuring the transepithelial electrical resistance (TEER) and the permeability of Lucifer yellow (LY). The TEER was measured using Millicell® ERS-2 voltameter (Bedford, USA). The Caco-2 cell model was used for the transport of FL77-28 and FL77-29 when the TEER values exceeded 300 Ω/cm^2. The TEER value was also measured at the end of the transport experiment. In addition, the permeability of LY, a paracellular transport marker, was also measured for the tightness of epithelial cells. […] Then, the fluorescence of samples was measured at excitation/emission wavelengths of 492/520 nm using the ELISA Plate.
Before the transport studies, the Caco-2 cell monolayers were washed twice with warm HBSS containing 15 mM glucose, 10 mM HEPES, and 1% BSA (pH 7.4) and pre-incubated for 30 min at 37 °C [26]. Next, HBSS was discarded and replaced with 0.5/1.0 µM of FL77-28 and FL77-29 dissolved in a different buffer on one side of the cell layer, 0.5 mL for the AP side and 1.5 mL for the BL side. The buffer at the AP was FaSSIF (pH 6.5) and the buffer at the BL was HBSS. Then, the monolayers were incubated at 37 °C. A sample aliquot of 0.5 mL (AP-BL) or 0.25 mL (BL-AP) was taken from the receiving compartment at different time points (120, 150, 180, 210, and 240 min) and then replaced with an equal volume of fresh pre-warmed buffer. The concentrations of FL77-28 and FL77-29 in the sample were determined by HPLC.
as §3
The concentration of each sample was measured by HPLC. The Papp of FL77-28 and FL77-29 was calculated according to the following equation:Papp (cm/s) = V/(C0·A)·(ΔQ/Δt)(1) where V (cm^3) is the volume of the receiver compartment, A is the monolayer surface area of the Transwell insert (1.12 cm^2), C0 is the initial drug concentration in the donor compartment, and (ΔQ/Δt) is the transport rate.
The efflux ratio (ER) was calculated using the following equation:ER = Papp BL-AP/Papp AP-BL(2)
Background: Caco-2 monolayers are a common model of the intestinal barrier.

Data set [4] concerns Caco-2 cells. In words: Cellular uptake in Caco-2 cells, effect of temperature. To be noted: 4 °C versus 37 °C, 4 h, 0.2-1.0 μM. In kind it is in vitro ADME. The procedure: as §2, §3
The test system of a further data set is A549. Briefly: MTT cytotoxicity assay, A549. It is filed as cell-based. To be noted: 72 h, mean ± SD (n = 3). The procedure: as §1
(§4) The cytotoxicity of FL118, FL77-28, and FL77-29 against HCT116, HeLa, A549 HepG2, and Caco-2 cell lines were measured using MTT assays. The cells were plated into 96-well plates at a density of 2 × 10^4 cells/mL and cultured for 24 h. Next, the cells were treated with 0.0125–0.500 μM of FL118, FL77-28, and FL77-29 for 4 h or 72 h. After incubation with 20 µL of 5 mg/mL MTT solution for 4 h, the supernatant was gently discarded and 150 µL of DMSO was added to dissolve the formazan crystals. Finally, the absorbance was measured at 570 nm and the background was subtracted at 630 nm using an ELISA Plate Reader.
A general note: Tetrazolium dyes change colour on reduction, which living cells bring about.

Another data set concerns HeLa. In words: MTT cytotoxicity assay, HeLa. In kind it is cell-based. The following applies: 72 h, mean ± SD (n = 3). As to the method:
as §1, §4

A further data set deals with Hep G2. Briefly: MTT cytotoxicity assay, Hep G2. In kind it is cell-based. The following applies: 72 h, mean ± SD (n = 3). As to the method: as §1, §4
A further data set deals with HCT 116. In words: MTT cytotoxicity assay, HCT 116. In kind it is cell-based. The following applies: HCT 116, MTT, 72 h, mean ± SD (n = 3). As to the method: as §1, §4
Data set [5] has as its target T2, P-gp. The following applies: cited from earlier work.
In data set [6] the target is T1, BCRP. The following applies: cited from earlier work.
The mark [7] stands for this setting: Caco-2 cells, 0.2 to 1.0 μM, 4 h, MTT.

Read-outs that look alike come from different tables or passages of the source.

The text below walks through data of publication PMC9230870, “Investigation of the Uptake and Transport of Two Novel Camptothecin Derivatives in Caco-2 Cell Monolayers” (Molecules, 2022).

Usually IC50 stands for the concentration that inhibits the measured activity by half. High values mean weaker potency in that assay, low ones greater potency in that assay. Take `CC[C@@]1(O)C(=O)OCc2c1cc1n(c2=O)Cc2c-1nc1cc3c(cc1c2-c1ccc(C)c(F)c1)OCO3` [FL77-28, 7-(3-Fluoro-4-methylphenyl)-10,11-methylenedioxy-20(S)-CPT]: the cell viability entry in the data set with Caco-2 cells [1] (setting [7]) is given as “above 90%”. Moreover, at BCRP [2], the “substrate of BCRP (uptake with Gefitinib)” value was “not substrates of P-gp or BCRP”. The “substrate of P-gp (uptake with Verapamil)” value on P-gp [3] is “not substrates of P-gp”. Also, in the data set with Caco-2 cell monolayers (37 °C), the “Papp AP-BL” value was 2.32 ± 0.04 × 10^−6 cm/s. Moreover, the “efflux ratio (ER) = Papp BL-AP/Papp AP-BL” value in the data set on Caco-2 cell monolayers was determined as 1.14. For the same compound, the “effect of temperature on cellular uptake” value with Caco-2 cells [4] is “no significant effect”. Further, the IC50 with A549 came out at 0.048 ± 0.007 µM; in the data set on HeLa, 0.022 ± 0.007 µM; in the data set on Hep G2 it was 0.065 ± 0.001 µM; in the data set with HCT 116 it was 0.045 ± 0.014 µM.
With `CC[C@@]1(O)C(=O)OCc2c1cc1n(c2=O)Cc2c-1nc1cc3c(cc1c2-c1ccc(F)c(C)c1)OCO3` [FL77-29, 7-(4-Fluoro-3-methylphenyl)-10,11-methylenedioxy-20(S)-CPT], the cell viability entry in the data set with Caco-2 cells [1] (setting [7]) is reported as “above 90%”. Further, the “substrate of BCRP (uptake with Gefitinib)” value at BCRP [2] is “not a substrate for BCRP”. Besides, the “substrate of P-gp (uptake with Verapamil)” value at P-gp [3] is recorded as “mediated by P-gp”. In addition, in the data set on Caco-2 cell monolayers (37 °C), the “Papp AP-BL” value is 2.48 ± 0.18 × 10^−6 cm/s. Besides, the “efflux ratio (ER) = Papp BL-AP/Papp AP-BL” value in the data set with Caco-2 cell monolayers was 1.40. For the same compound, the “effect of temperature on cellular uptake” value in the data set on Caco-2 cells [4] is “incubation at 4 °C significantly increased the cellar uptake”. In addition, the IC50 in the data set on A549 came out at 0.028 ± 0.004 µM; in the data set with HeLa, 0.036 ± 0.004 µM; with Hep G2, 0.034 ± 0.002 µM; in the data set with HCT 116, 0.025 ± 0.003 µM.
Turning to `CC[C@@]1(O)C(=O)OCc2c1cc1n(c2=O)Cc2cc3cc4c(cc3nc2-1)OCO4` [FL118, 10,11-methylenedioxy-20(S)-CPT, reference compound], the cell viability entry with Caco-2 cells [1] is given as “above 90%”. Besides, the “substrate of BCRP (uptake with Gefitinib)” value at BCRP [2] was “not substrates of P-gp or BCRP”. The “substrate of P-gp (uptake with Verapamil)” value at P-gp [3] is on record as “not substrates of P-gp”. In addition, the “effect of temperature on cellular uptake” value in the data set on Caco-2 cells [4] was “no significant effect”. Besides, the IC50 in the data set on A549 was 0.043 ± 0.004 µM; in the data set with HeLa it was 0.04 ± 0.003 µM; in the data set with Hep G2, 0.104 ± 0.002 µM; in the data set on HCT 116, 0.05 ± 0.004 µM. Also, the “substrate of P-gp” value at P-gp [5] was “not being a substrate for P-gp”. Further, at BCRP [6], the “substrate of BCRP” value was “not being a substrate for P-gp or BCRP”.
On to Lucifer yellow [LY, reference compound], for which the “Papp of LY (monolayer integrity marker)” value in the data set with Caco-2 cell monolayers (20 µg/mL, 2 h, 37 °C) was 0.57 ± 0.14 × 10^−6 cm/s.
